Source: the NIST ThermoML archive (doi:10.1007/s10765-013-1539-3)

Assay: wn = mass fraction of the nth substance listed
Conditions: Gas, Steady Flow

[HH] [hydrogen] + CCC
binary diffusion coefficient [m2/s], w1 = 0.5
Conditions | 250 K | 280 K | 320 K | 400 K | 480 K | 560 K | 640 K | 720 K | 800 K | 900 K
100 kPa | 3.28e-05 | 4.01e-05 | 5e-05 | 7.4e-05 | 0.000101 | 0.000131 | 0.000164 | 0.0002 | 0.00024 | 0.000292
3500 kPa | – | – | – | 1.6e-05 | 2.58e-05 | 3.56e-05 | 4.57e-05 | 5.63e-05 | 6.8e-05 | 8.3e-05
7000 kPa | – | – | – | 4.5e-06 | 1.14e-05 | 1.7e-05 | 2.21e-05 | 2.78e-05 | 3.37e-05 | 4.24e-05
10500 kPa | – | – | – | 2.98e-06 | 6.8e-06 | 1.07e-05 | 1.47e-05 | 1.83e-05 | 2.23e-05 | 2.83e-05
14000 kPa | – | – | – | 2.72e-06 | 4.9e-06 | 7.89e-06 | 1.08e-05 | 1.37e-05 | 1.65e-05 | 2.04e-05

[C-]#[O+] [carbon monoxide] + [HH]
binary diffusion coefficient [m2/s], w2 = 0.5
Conditions | 250 K | 300 K | 350 K | 400 K | 500 K | 600 K | 700 K | 800 K | 900 K
100 kPa | 5.6e-05 | 7.7e-05 | 0.000101 | 0.000127 | 0.000188 | 0.000258 | 0.000337 | 0.000425 | 0.000522
4000 kPa | 1.32e-05 | 1.96e-05 | 2.58e-05 | 3.28e-05 | 4.84e-05 | 6.6e-05 | 8.7e-05 | 0.000109 | 0.000134
7000 kPa | 8e-06 | 1.16e-05 | 1.52e-05 | 1.96e-05 | 2.89e-05 | 3.97e-05 | 5.14e-05 | 6.5e-05 | 7.9e-05
10000 kPa | 5.6e-06 | 8.1e-06 | 1.09e-05 | 1.38e-05 | 2.03e-05 | 2.79e-05 | 3.63e-05 | 4.55e-05 | 5.58e-05
15000 kPa | 4e-06 | 5.6e-06 | 7.4e-06 | 9.4e-06 | 1.42e-05 | 1.96e-05 | 2.63e-05 | 3.35e-05 | 4.2e-05

[HH] [hydrogen] + CC
binary diffusion coefficient [m2/s], w1 = 0.5
Conditions | 250 K | 280 K | 320 K | 400 K | 480 K | 560 K | 640 K | 720 K | 800 K | 900 K
100 kPa | 4.29e-05 | 5.2e-05 | 6.5e-05 | 9.5e-05 | 0.000131 | 0.00017 | 0.000212 | 0.000261 | 0.000313 | 0.000382
3500 kPa | – | – | 1.46e-05 | 2.53e-05 | 3.6e-05 | 4.81e-05 | 6.2e-05 | 7.6e-05 | 9.1e-05 | 0.00011
7000 kPa | – | – | 3.3e-06 | 1.15e-05 | 1.75e-05 | 2.4e-05 | 3.1e-05 | 3.81e-05 | 4.61e-05 | 5.59e-05
10500 kPa | – | – | 2.4e-06 | 6.8e-06 | 1.13e-05 | 1.58e-05 | 2.04e-05 | 2.52e-05 | 3e-05 | 3.72e-05
14000 kPa | – | – | 2.21e-06 | 5e-06 | 8.6e-06 | 1.2e-05 | 1.58e-05 | 1.94e-05 | 2.33e-05 | 2.83e-05
